Data published in patent US7220784B2, “Substituted stilbenes and their reactions” (priority 2000, dated 2007).
Read-outs that look alike come from different tables or passages of the source.

How the values were obtained:
[1] = test system: colchicine binding site on tubulin; assay: Competition for the colchicine binding site on tubulin
tubulin [2] = test system: T1, tubulin; assay: Inhibition of tubulin assembly; assay type: biochemical; conditions: concentration required to reduce assembly of tubulin by 50%
T1 construct: other: concentration required to reduce assembly of tubulin by 50%
Procedure: (§1) The following assays (1–5) were carried out as described in our paper (Woods, et al, British Journal of Cancer, 71, 705–711 (1995)). In addition to the cell lines described in this paper, other established human cell lines (K562, HUVEC, H460, BE, H529, and HT29) were used in the cytotoxicity/growth inhibition assay. • (1) Inhibition of tubulin assembly. The figure quoted is the concentration required to reduce assembly of tubulin by 50%. Tubulin assembly is monitored by light scatter/absorption at 350 nm.

A2780 = assay: Cytotoxicity/growth inhibition assay (MTT), A2780; assay type: cell-based
Procedure: as §1
(§2) (2) Competition for the colchicine binding site on tubulin. The figure quoted represents the % of ^3H-colchicine bound following co-incubation of test compound and ^3H-cochicine with isolated tubulin. Where ester pro-drugs were used the experiments were carried out in the presence and absence of porcine liver esterase. • (3) Cytotoxicity/growth inhibition assay. This was carried out by the MTT assay. • (4) Permeability (shape-change) assay in endothelial cells. This was carried out using a method based on that of Watts et al. (Anticancer Res., 17, 71–75, (1997)). This involved the diffusion of a fluorescently labelled dextran through a barrier of endothelial cells (HUVEC) grown to confluence on a porous membrane. The effect of agents to alter the shape of these cells results in an increase in the permeability of the cells to the dye. The figure represents the increase in permeability over control cultures when drug is added (30 minutes, 1 mM.). • (5) Experiments to study the anti-vascular effects of these agents were carried out as described previously by our group. (Zhao et al, European Journal of Nuclear Medicine, 26, 231–238 (1999)). The anti-vascular effects of the agents were monitored by either positron emission tomography (PET) or by histologogical examination following treatment of mice bearing T50:80 murine breast tumours, or H460 human lung tumours. • (6) Anti-tumour efficacy of agents was determined in xenografts of H460 human lung cancer. Animals (n=5) were trated either with 5 daily injections and tumour size measured with time following treatment. • (7) The pharmacokinetic profile of agents was determined in mice following injection with drug. Blood was taken at various times following treatment and analysed by HPLC with UV detection. The HPLC conditions were isocratic using a 5 micron C18 BDS column (150×4.6) ad eluting with 75% MeOH in water with a detection wavelength of 290 nm. […] (AND(P)H:quinone oxidoreductace, EC 1.6.99.2). DT-diaphorase is an enzyme over-expressed in a number of human tumours. […] This two-electron reducing enzyme can be used to selectively activate prodrugs within cancers which over-express the enzyme.

[3] = test system: K562 human myelogeneous leukaemia cell line; assay: Cytotoxicity/growth inhibition assay (MTT), K562; assay type: cell-based
How it was run: (§3)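 Growth inhibition of P388 murine and K562 human leukaemia cells measured by MTT assay.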

A2780/ADR = assay: Cytotoxicity/growth inhibition assay (MTT), A2780/ADR; assay type: cell-based
Procedure: as §1, §2

[4] = test system: colchicine binding site on tubulin; assay: Competition for the colchicine binding site on tubulin; conditions: % of 3H-colchicine bound; for Colchicine displacement protein:drug 1:10 (with esterase): with porcine liver esterase
Procedure: as §2, with “This was carried out using a method based on that of Watts et al. (Anticancer Res., 17, 71–75, (1997)).” left out, “(Zhao et al, European Journal of Nuclear Medicine, 26, 231–238 (1999)).” left out, “detection.” for “detection. The HPLC conditions were isocratic using a 5 micron C18 BDS column (150×4.6) ad eluting with 75% MeOH in water with a detection wavelength of 290 nm.”

HUVEC = assay: Growth inhibition studies using HUVEC; assay type: cell-based, human; conditions: Homo sapiens, HUVEC
Procedure: as §1, §2

[5] = test system: P388 murine leukaemia cell line; assay: Cytotoxicity/growth inhibition assay (MTT), P388; assay type: cell-based; conditions: Mus musculus, P388, MTT
How it was run: as §3

tubulin [6] = assay: MA IC50 (Tables 12-26, abbreviation not defined); assay type: biochemical
tubulin [7] = assay: CD IC50 (Tables 12-26, abbreviation not defined); assay type: binding
K562 = K562 cell cycle analysis; assay type: cell-based, human; conditions: K562; for % of cells in G0–G1 / % of cells in G2-M / % of cells in S phase: of cells with DNA content = 2 n or >2 n
[8] = Homo sapiens, A2780, read-out: A2780 IC50
[9] = Homo sapiens, K562, MTT, read-out: K562 IC50
[10] = Homo sapiens, A2780, read-out: IC50 (nM) A2780
[11] = Homo sapiens, K562, Table 22, read-out: MTT (K582) IC50

| Compound | IC50 (tubulin [2]) [µM] | IC50 [3, 9] [nM] | IC50 (A2780/ADR; A2780 ADR) [nM] | IC50 (A2780; [10]) [nM] | Colchicine displacement protein:drug 1:10 (with esterase) [4] [%] | Colchicine displacement protein:drug 1:10 (without esterase) [4] [%] | IC50 (HUVEC) [nM] | IC50 (tubulin [6]) [nM] | IC50 (tubulin [7]) [nM] | % of cells with DNA content <2 n (K562) [%] | % of cells in G0–G1 (K562) [%] | % of cells in G2-M (K562) [%] | % of cells in S phase (K562) [%] | further results |
| --- | --- | --- | --- | --- | --- | --- | --- | --- | --- | --- | --- | --- | --- | --- |
| COc1cc(C=Cc2cc(F)c(OC)c(F)c2)cc(OC)c1OC [Compound 00-82] | 7.2 | 50 |  |  |  |  |  |  |  |  |  |  |  | Colchicine % Inhibition [1]: 39.5%; IC50 (A2780; [8]): 60 nM |
| COc1ccc(C=Cc2cc(OC)c(OC)c(OC)c2)c(F)c1F [Compound 00-105] | > 100 | 20 |  |  |  |  |  |  |  |  |  |  |  | Colchicine % Inhibition [1]: 3.6% |
| COc1ccc(C=Cc2cc(OC)c(OC)c(OC)c2)cc1OC(=O)C(Cc1ccccc1)NC(=O)OC(C)(C)C (centres unmarked) [Compound 33, Boc-Phenylalanine Combretastatin A-4] | 3.6 |  | 4 | 2.8 | 2 | 92 |  |  |  |  |  |  |  |  |
| CCC(C)C(NC(=O)OC(C)(C)C)C(=O)Oc1cc(C=Cc2cc(OC)c(OC)c(OC)c2)ccc1OC (centres unmarked) [Compound 34] | 6.2 |  | > 60 | > 60 | 2 | 65 |  |  |  |  |  |  |  |  |
| COc1ccc(/C=C\c2cc(OC)c(OC)c(OC)c2)cc1OC(=O)CNC(=O)OC(C)(C)C [Compound 35] | 7.5 |  | 5 | 4.3 | 4 | 65 |  |  |  |  |  |  |  |  |
| COc1ccc(C=Cc2cc(OC)c(OC)c(OC)c2)cc1OC(=O)C(Cc1c[nH]c2ccccc12)NC(=O)OC(C)(C)C (centres unmarked) [Compound 36] | 4 |  | 2 | 1.7 |  |  |  |  |  |  |  |  |  |  |
| COc1ccc(C=Cc2cc(OC)c(OC)c(OC)c2)cc1OC(=O)C(CCSC)NC(=O)OC(C)(C)C (centres unmarked) [Compound 37] | 6 |  | 9.1 | 6.7 | 2 | 88 |  |  |  |  |  |  |  |  |
| COc1ccc(C=Cc2cc(OC)c(OC)c(OC)c2)cc1OC(=O)C(CC(C)C)NC(=O)OC(C)(C)C (centres unmarked) [Compound 38] | 7.8 |  | 27 | 14 |  | 72 |  |  |  |  |  |  |  |  |
| COc1ccc(C=Cc2cc(OC)c(OC)c(OC)c2)cc1OC(=O)C(C)NC(=O)OC(C)(C)C (centres unmarked) [Compound 39] | 8 |  | 4.6 | 2.7 | 2 | 77 |  |  |  |  |  |  |  |  |
| COc1ccc(/C=C\c2cc(OC)c(OC)c(OC)c2)cc1OC(=O)C(Cc1c[nH]cn1)NC(=O)OC(C)(C)C (centres unmarked) [Compound 40] | 7 |  |  |  | 4 | 2 |  |  |  |  |  |  |  | IC50 (A2780/ADR): 4.3 nM; IC50 (A2780; read-out: IC50 (nM) A2780): 2.2 nM |
| COc1ccc(C=Cc2cc(OC)c(OC)c(OC)c2)cc1OC(=O)C1CCCN1C(=O)OC(C)(C)C (centres unmarked) [Compound 41] | 9 |  | 39 | 29 | 2 | 78 |  |  |  |  |  |  |  |  |
| COc1ccc(/C=C\c2cc(OC)c(OC)c(OC)c2)cc1OC(=O)[C@@H](CCSC)NC(=O)OC(C)(C)C [Compound 42] | 3.5 |  | 2.9 | 2.9 | 2 |  |  |  |  |  |  |  |  |  |
| COc1ccc(/C=C\c2cc(OC)c(OC)c(OC)c2)cc1OC(=O)[C@@H](Cc1c[nH]c2ccccc12)NC(=O)OC(C)(C)C [Compound 43] | 3 |  | 3.8 | 3.3 | 2 |  |  |  |  |  |  |  |  |  |
| COc1ccc(/C=C\c2cc(OC)c(OC)c(OC)c2)cc1OC(=O)C(Cc1ccc(O)cc1)NC(=O)OC(C)(C)C (centres unmarked) [Compound 44] |  |  |  |  |  |  |  |  |  |  |  |  |  | IC50 (A2780/ADR): 6.4 nM; IC50 (A2780; read-out: IC50 (nM) A2780): 4.5 nM |
| COc1cc(C=Cc2ccc(N(C)C)cc2)cc(OC)c1OC [Compound 97-65] | 100 |  |  |  |  |  | 350 |  |  |  |  |  |  | IC50 [5]: 180 nM; IC50 (A2780; [8]): 95 nM |
| COc1ccc(/C=C\c2cc(C)c(C)c(C)c2)cc1 [Compound 117] |  | 310 |  |  |  |  | > 1000 | 650 | > 25000 | 15 | 3 | 87 | 10 |  |
| COc1ccc(/C=C\c2cc(C)c(C)c(C)c2)cc1F [Compound 120] |  | 140 |  |  |  |  | 460 | 700 | 10000 | 23 | 6 | 77 | 17 |  |
| COc1ccc(/C=C\c2cc(C)c(C)c(C)c2)cc1O [Compound 133] |  |  |  |  |  |  | 50 | 120 | 10000 | 6 | 3 | 91 | 6 | IC50 ([3]; MTT, read-out: K562 IC50): 20 nM |
| COc1ccc(C=C(C)c2cc(OC)c(OC)c(OC)c2)cc1O [Compound 210] |  | 40 |  |  |  |  | 90 | 130 | 6000 | 23 | 5 | 73 | 22 | IC50 [3, 11]: 40 nM |
| COc1ccc(C=C(C)c2cc(OC)c(OC)c(OC)c2)cc1 [Compound 213] |  |  |  |  |  |  | 350 | 1300 | > 25000 | 23 | 5 | 73 | 21 | IC50 [3, 11]: 100 nM |
| CCC(=Cc1ccc(OC)c(O)c1)c1cc(OC)c(OC)c(OC)c1 [Compound 219] |  |  |  |  |  |  | 220 | 130 | > 25000 | 24 | 7 | 74 | 19 | IC50 [3, 11]: 120 nM |
| CCOc1cc(C=Cc2ccc(OC)c(F)c2)cc(OCC)c1OCC [Compound 251] |  | 44 |  |  |  |  | 190 | 1250 | > 25000 | 24 | 7 | 75 | 18 |  |
| CCOc1cc(C=Cc2ccc(OC)c(O)c2)cc(OCC)c1OCC [Compound 253] |  | 18 |  |  |  |  | 50 | 500 | 15500 | 4 | 3 | 92 | 6 |  |
